{
  "source": "patent US8309530B2",
  "about": "“Compositions and methods for modulating ghrelin-mediated conditions” (Washington State University, priority 2009, dated 2012)",
  "key": {"[1]": {"tested_on": "ghrelin mRNA", "assay": "initial screening of ghrelin siRNAs using cultured cells: suppression of ghrelin mRNA in vitro", "type": "cell-based, mouse", "method": "In certain preferred embodiments, baseline food intake for the 12-h light and dark period is measured over a 48-h time period in rats (n=16) that receive no treatment. On the third day, rats are separated randomly into two groups. One group of rats (n=8) is treated with scrambled ghrelin siRNA, the other group of rats receive ghrelin siRNA in the same volume administered orally by using an intragastric gavage. The dose and the specific siRNA is determined by an initial screening of ghrelin siRNAs using cultured cells. The siRNA that induces a significant suppression of ghrelin mRNA (for example, Applicants have shown that GGUUCAAUGCUCCCUUCGAtt (SEQ ID NO:17) suppressed ghrelin mRNA levels by 40% in vitro) compared to scrambled or saline control is, then, used in vivo. Food intake is measure before dark and light onset on each experimental day and for 5 additional days after the siRNA treatment. Body weight is monitored once a day. Additionally, rats are implanted with EEG and EMG electrodes for sleep-wake recordings."}, "[2]": {"tested_on": "ghrelin KO mice", "assay": "bolus injections of obestatin in ghrelin KO mice (preliminary data)", "type": "in vivo", "settings": "preliminary data (not shown)", "from_the_text": "(§1) Likewise, in addition to ghrelin, another product of the ghrelin gene is obestatin. The effects of obestatin on food intake and metabolism appear to be the opposite of those of ghrelin although the results are still inconclusive (2, 10-14). If obestatin has a leptin-like role in the regulation of metabolism, then decreased resistance to metabolic challenge in ghrelin KO mice could be explained by the lack of this hormone. Based on this idea, Applicants attempted to rescue the herein disclosed impaired phenotype by replacing obestatin in ghrelin KO mice. There are several potential ways to do this, although each has its own limitations. The effects of a single bolus injection of obestatin are limited by the half-life of the peptide (22±2 min). […] Because of those limitations, obestatin was replaced using osmotic minipumps. This method also has limitations. The minipumps are filled and implanted at least 10 days before the challenge to allow enough time for recovery and to carry out the experiment. The stability of obestatin in solution at body temperature for such extended time period is unknown. Moreover, some of the biological effects of obestatin show a bell-shaped dose-response relationship. It is unknown whether the amount of obestatin released from the minipumps provides the optimal plasma levels or appropriate pulsatile or ultradian secretion patterns."}, "[3]": {"tested_on": "ghrelin KO mice", "assay": "obestatin replacement by osmotic minipump in ghrelin KO mice, fasting in cold environment", "type": "in vivo", "from_the_text": "as §1, with “It is unknown whether the amount of obestatin released from the minipumps provides the optimal plasma levels or appropriate pulsatile or ultradian secretion patterns.” left out\nBody temperature data are expressed as difference from baseline in 10-min averages."}},
  "note": "“Also recorded” adds a separate entry of the source.",
  "data": [
    {"substance": "SEQ ID NO:17: ghrelin siRNA (mouse), sequence GGUUCAAUGCUCCCUUCGAtt (GGUUCAAUGCUCCCUUCGATT; chemistry not given here)", "values": [
      {"measurement": "suppression of ghrelin mRNA levels", "setting": "[1]", "value": 40, "unit": "%"}
    ]},
    {"substance": "obestatin", "values": [
      {"measurement": "hypothermia in ghrelin KO mice", "setting": "[2]", "value": "attenuated hypothermia"},
      {"measurement": "development of hypothermia / hypothermic response", "setting": "[3]; osmotic minipump, fasting day", "value": "significantly attenuated; also recorded: significantly delayed"},
      {"measurement": "entered hypothermia later than those that received saline", "setting": "[3]; subcutaneous infusion of 300 nmol/kg/day for 10 days by osmotic minipump", "value": "about 6 hours"}
    ]}
  ]
}
